Assays:
[1] = test system: Fusarum oxysporum f. sp. lycopersici race 1, strain RMI; assay: Checkerboard combination of peptide with antifungal agent (Limpel method), Fusarium; assay type: cell-based, Fusarium oxysporum; parameters: key to Expected Inhibition (Limpel formula): expected % inhibition, Ec = X + Y - XY/100 (Limpel)
Experimental: (§1) Antimicrobial peptides were mixed with known antifungal compounds according to the checkerboard method of Eliopoulos and Moellering, 1991 and the effect of these mixtures was determined.
(§2) The checkerboard method requires serial dilutions of two antimicrobial compounds in concentration ranges spanning the minimal inhibitory concentrations (MICs) of the compounds. Synergism, antagonism, or additivity of the drug combinations was by measured by determining the antimicrobial effect of the various dilutions of the two drugs. Synergism existed when the antimicrobial effect of a mixture was greater than the sum of the independent antimicrobial effects of its combined components. Additivity was indicated when the antimicrobial effect of a drug combination was simply the sum of the independent antimicrobial effects. Antagonism existed when the antimicrobial effect of a mixture of drugs was less than the sum of the independent antimicrobial effects of the separate drugs.
Frozen glycerol stocks of F. oxysporum f. sp. lycopersici microconidia were used for the bioassays. Microconidia or spores were thawed on ice, washed 2× in PDB, and diluted in 2× PDB to obtain the appropriate inoculum concentration for the assay. The 2× PDB was employed for the dilutions to obtain a final concentration of I× PDB in each test well. Microtiter plates were incubated without shaking, in the dark, at 250 C. Absorbance readings were recorded at 24 hr intervals for 72 h. To follow growth in the microtiter plates, an EMAX PRECISION MICROPLATE READER (Molecular Devices Corp., Menlo Park, Calif.) attached to a HEWLETT-PACKARD THINK-JET (Hewlett-Packard Company, Vancouver, Wash.) printer was used to obtain the absorbance (at 595 run) readings. All test combinations were performed in triplicate. Sterile, disposable, flat bottom, polystyrene, 96~well (with lid) microtiter plates (Corning Glass Works, Scientific Products Division, Corning, N.Y.) were used to conduct the assays. The initial concentration of peptide FRLKFH-NH2 (Seq. ID No.34), peptide FRLKFHI-NH2 (Seq. ID No.40), nystatin (5.13 units/ug), and miconazole used in the assay series were 26, 60, 88, and 60 ug/ml, respectively. The checkerboard was setup as described by Eliopoulos and Moellering, 1991. Once the checkerboard mixtures were prepared 50 ul of inoculum […] was added to each of the wells. F. oxysporum f. sp. lycopersici microconidia were produced using FLC medium. Esposito, R. and Fletcher, A. M. 1961. A 4 mm square of an actively growing culture was taken from PDA to 50 ml of FLC broth in a sterile 250 ml screwcap flask. The culture was incubated with shaking […] at 250 C. After 96 h, the slurry of mycelia and microconidia was filtered twice through 3 layers of sterile cheesecloth to obtain the microconidial suspension. The microconidial suspension was adjusted to a concentration of 1-5×10^7 microconidial/ml using a Brightlme hemacytometer (Hausser Scientific, Horsham, Pa.) and stored frozen in I ml aliquots in 20% sterile glycerol at -80C.
(§3) Synergism between known antifungal compounds and antifungal peptides was also studied using the method of Limpel as described by Richer. Richer, D. L. 1987. The methodology of Limpel is described by the equation: […]
(§4) Where Ec is the expected additive effect of two antifungal agents, X is the observed percentage inhibition of the test organism when antifungal agent A is applied alone at the rate used in the mixture, and Y is the observed percentage inhibition of the test organism when antifungal agent B is used alone at the rate used in the mixture. […] Richer, D. L. 1987.
(§5) Experimental studies were set up using the checkerboard method as described by Eliopoulos and Moellering, 1991. The observed inhibitory effects of the antifungal agent and peptide combinations were measured as described above and compared with Ec as calculated from the Limpel formula.

Aspergillus fumigatus = assay: Checkerboard combination of peptide with antifungal agent (Limpel method), Aspergillus fumigatus; assay type: cell-based
Experimental: as §1, §2, §3, §4, §5

Aspergillus paraciticus = assay: Checkerboard combination of peptide with antifungal agent (Limpel method), Aspergillus paraciticus; assay type: cell-based
Experimental: as §1, §2, §3, §4, §5

[2] = Nystatin 0.3 ug/ml, Peptide 0 ug/ml
[3] = Nystatin 0.6 ug/ml, Peptide 0 ug/ml
[4] = Nystatin 1.3 ug/ml, Peptide 0 ug/ml
[5] = Nystatin 2.5 ug/ml, Peptide 0 ug/ml
[6] = Nystatin 5 ug/ml, Peptide 0 ug/ml
[7] = Nystatin 10 ug/ml, Peptide 0 ug/ml
[8] = Nystatin 20 ug/ml, Peptide 0 ug/ml
[9] = Nystatin 0 ug/ml, Peptide 0.6 ug/ml
[10] = Nystatin 0 ug/ml, Peptide 1.3 ug/ml
[11] = Nystatin 0 ug/ml, Peptide 2.5 ug/ml
[12] = Nystatin 0 ug/ml, Peptide 5 ug/ml

C[C@@H]1[C@H](O)[C@@H](C)/C=C/C=C/CC/C=C/C=C/C=C/C=C/C(O[C@H]2O[C@H](C)[C@@H](O)[C@H](N)[C@@H]2O)CC2O[C@](O)(CC(O)C(O)CCC(O)CC(O)CC(O)CC(=O)O[C@H]1C)CC(O)C2C(=O)O (stereo partly drawn) [Nystatin, nystatin]
Expected Inhibition (Limpel formula) [1, 2]: 6.0 | Observed Inhibition (percentage inhibition) [1, 2]: 6.0 | Expected Inhibition (Limpel formula) [1, 3]: 3.0 | Observed Inhibition (percentage inhibition) [1, 3]: 3.0 | Expected Inhibition (Limpel formula) [1, 4]: 4.0 | Observed Inhibition (percentage inhibition) [1, 4]: 4.0 | Expected Inhibition (Limpel formula) [1, 5]: 1.0 | Observed Inhibition (percentage inhibition) [1, 5]: 1.0 | Expected Inhibition (Limpel formula) [1, 6]: 16.0 | Observed Inhibition (percentage inhibition) [1, 6]: 16.0 | Expected Inhibition (Limpel formula) [1, 7]: 100.0 | Observed Inhibition (percentage inhibition) [1, 7]: 100.0 | Expected Inhibition (Limpel formula) [1, 8]: 100.0 | Observed Inhibition (percentage inhibition) [1, 8]: 100.0

FRLKFH: D-amino acid hexapeptide FRLKFH-NH2
interaction with nystatin (observed vs expected inhibition) (Aspergillus fumigatus; peptide 4.4-7.5 ug/ml, nystatin 0.6-2.5 ug/ml, Table XXII): synergism | interaction with miconazole (observed vs expected inhibition) (Aspergillus fumigatus; peptide 17.5-70 ug/ml, miconazole 0.3-2.0 ug/ml, Table XX): synergism | interaction with amphotericin B (observed vs expected inhibition) ([1]; peptide 5.0-10.0 ug/ml, amphotericin B 0.3-2.0 ug/ml, Fusarium oxysporum, Table XVI): synergism

FRLKFHF [D-amino acid heptapeptide FRLKFHF-NH2]
interaction with fluconazole (observed vs expected inhibition) (Aspergillus fumigatus; peptide 1.3-20.0 ug/ml, fluconazole 29-230 ug/ml, Table XVIII): synergism | interaction with amphotericin B (observed vs expected inhibition) (Aspergillus paraciticus; peptide 2.5-10 ug/ml, amphotericin B 0.2-0.6 ug/ml, Table XXIV): synergism | interaction with nystatin (observed vs expected inhibition) (Aspergillus paraciticus; peptide 2.5-10 ug/ml, nystatin 0.3-5.0 ug/ml, Table XXVI): synergism | interaction with fluconazole (observed vs expected inhibition) (Aspergillus paraciticus; peptide 2.5-20 ug/ml, fluconazole 7.5-120 ug/ml, Table XXV): synergism | Expected Inhibition (Limpel formula) [1, 9]: 2.0 | Observed Inhibition (percentage inhibition) [1, 9]: 2.0 | Expected Inhibition (Limpel formula) [1, 10]: 0.0 | Observed Inhibition (percentage inhibition) [1, 10]: 0.0 | Expected Inhibition (Limpel formula) [1, 11]: 13.0 | Observed Inhibition (percentage inhibition) [1, 11]: 13.0 | Expected Inhibition (Limpel formula) [1, 12]: 29.0 | Observed Inhibition (percentage inhibition) [1, 12]: 29.0 | interaction with nystatin (observed vs expected inhibition) ([1]; nystatin 0.3-5 ug/ml, peptide 0.6-5 ug/ml, Fusarium oxysporum, Table XIV): synergism | interaction with miconazole (observed vs expected inhibition) ([1]; peptide 1.3-5.0 ug/ml, miconazole 0.6-20 ug/ml, Fusarium oxysporum, Table XVII): synergism

FRLKFHI [D- amino acid heptapeptide FRLKFHI-NH2]
interaction with miconazole (observed vs expected inhibition) (Aspergillus fumigatus; peptide 1.340 ug/ml, miconazole 0.5-2.0 ug/ml, Table XIX): synergism | interaction with fluconazole (observed vs expected inhibition) (Aspergillus fumigatus; peptide 1.3-20 ug/ml, fluconazole 28.7-229.5 ug/ml, Table XXI): synergism | interaction with miconazole (observed vs expected inhibition) (Aspergillus paraciticus; peptide 3.8-60 ug/ml, miconazole 0.2-1.3 ug/ml, Table XXIII): synergism | interaction with amphotericin B (observed vs expected inhibition) ([1]; peptide 0.9-7.0 ug/ml, amphotericin B 0.9-7.5 ug/ml, Fusarium oxysporum, Table XV): synergism | interaction with fluconazole (observed vs expected inhibition) ([1]; peptide 1.3-20 ug/ml, fluconazole 28.7-229.5 ug/ml, Fusarium oxysporum, Table XXVII): synergism
